According to patent US20190119282A1, “IMIDAZOPYRIDAZINES USEFUL AS INHIBITORS OF THE PAR-2 SIGNALING PATHWAY” (Vertex Pharmaceuticals Incorporated, priority 2013, published 2019):
pIC50: −log10 of the molar value.

Tests used:
[1] = tested on: Thrombin-stimulated Ca2+ response in HT-29 cells; assay: Ca FLIPR TETRA assay, ANTAGONIST mode, stimulation with 1 U/mL Thrombin; assay type: cell-based, human; settings: Homo sapiens, HT-29 cells, stimulation with 1 U/mL Thrombin
Description: (§1) Example 60: Protocol for Testing PAR2 Compounds in ANTAGONIST Mode Using the Ca FLIPR^TETRA Assay (384 Well)
(§2) 23000 HT-29 cells (ATCC# HTB-38) were plated in 384-well black, transparent-flat bottom plates and incubated in 25 uL of 1% FBS/McCoy's media ON at 37° C. under an atmosphere of 5% CO2. The following day, 25 uL FLIPR calcium 5 Molecular Devices assay reagent (Cat: R-8186) was added. Plates were incubated at 37° C. and r. t. for 45 min and 15 min, respectively. Compounds dilutions were prepared in 100% DMSO using a Biomek FX and diluted 20-fold in HBSS and then 5.5 uL was added directly to the cells by the FLIPR^TETRA (10× dilution) using FLIPR Tetra Pipette tips, black, non-sterile, 384 Molecular Devices (Cat: 9000-0764).
(§3) A first read was performed to determine whether the test compounds on their own can activate Ca2+ responses.
(§4) The cells were incubated with the compounds for 30 min at r. t. and then read in ANTAGONIST mode in the same plate by stimulating with 6.2 uL of a fixed concentration of the activator: final concentrations: 8 μM SLIGKV, 1 U/mL Thrombin, 3.1 U/mL trypsin, or 0.6 μM UTP.

[2] = tested on: UTP-stimulated Ca2+ response in HT-29 cells; assay: Ca FLIPR TETRA assay, ANTAGONIST mode, stimulation with 0.6 μM UTP; assay type: cell-based, human; settings: Homo sapiens, HT-29 cells, stimulation with 0.6 μM UTP
Description: as §1, §2, §3, §4

[3] = biological target: T1, PAR2 (HT-29 cells, SLIGKV activation) (Homo sapiens, UniProt P55085); assay: Ca FLIPR TETRA assay, ANTAGONIST mode, stimulation with 8 μM SLIGKV; assay type: cell-based; settings: for pIC50: HT-29 cells, stimulation with 8 μM SLIGKV
T1 construct: host or cells: HT-29 cells
T1 sequence (P55085 26-397): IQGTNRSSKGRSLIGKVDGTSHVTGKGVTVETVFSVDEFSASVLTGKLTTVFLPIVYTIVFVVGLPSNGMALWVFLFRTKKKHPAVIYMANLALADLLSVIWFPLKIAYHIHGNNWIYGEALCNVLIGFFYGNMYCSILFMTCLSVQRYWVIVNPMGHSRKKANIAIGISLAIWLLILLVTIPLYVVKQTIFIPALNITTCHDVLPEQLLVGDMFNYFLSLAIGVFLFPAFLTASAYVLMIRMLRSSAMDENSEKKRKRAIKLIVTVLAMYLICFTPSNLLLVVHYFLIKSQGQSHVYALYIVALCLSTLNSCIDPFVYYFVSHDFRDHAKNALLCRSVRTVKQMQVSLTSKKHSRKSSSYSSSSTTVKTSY
Description: as §1, §2, §3, §4

[4] = biological target: T2, PAR2 (HT-29 cells, trypsin activation) (Homo sapiens, UniProt P55085); assay: Ca FLIPR TETRA assay, ANTAGONIST mode, stimulation with 3.1 U/mL trypsin; assay type: cell-based; settings: HT-29 cells, stimulation with 3.1 U/mL trypsin
T2 construct: host or cells: HT-29 cells
T2 sequence (P55085 26-397): T1 sequence (P55085 26-397)
Description: as §1, §2, §3, §4

| Compound | pIC50 ([1]; antagonist mode) | pIC50 ([2]; antagonist mode) | pIC50 ([3]; antagonist mode) | pIC50 ([4]; antagonist mode) | pIC50 [1] | pIC50 [2] | SLIGKV % @ concentration ([3]; @ 1.9 (μM)) | pIC50 [4] | pIC50 [3] |
| --- | --- | --- | --- | --- | --- | --- | --- | --- | --- |
| COC(=O)C1(C)CCC(C(=O)N2CCN(C(=O)c3cn4nc(-c5ccc(F)cc5)cc(C(C)(C)C)c4n3)C(C)(C)C2)CC1 (stereo not drawn) [Compound I-526] | < 6.00 | < 6.00 | 9.22 | 9.10 |  |  |  |  |  |
| CC(C)(C)c1cc(C2CCC(F)(F)CC2)nn2cc(C(=O)N3CCN(c4cc[nH]n4)C(=O)C3(C)C)nc12 [Compound I-474] | < 6.00 | < 6.00 | 8.62 | 7.70 |  |  |  |  |  |
| O=C(c1cn2nc(-c3ccc(F)cc3)cc(C(F)(F)F)c2n1)N1CCN(C(=O)N2CCCCC2)CC1 [Compound I-50] |  |  |  |  | < 4.30 | < 4.30 | 44% @ 1.9 | 4.57 |  |
| Cc1nnc(C(=O)N2CCN(C(=O)c3cn4nc(C5CCC(F)(F)CC5)cc(C(C)(C)C)c4n3)C(C)(C)C2)o1 [Compound I-461] | < 6.00 | < 6.00 | 7.83 | 7.40 |  |  |  |  |  |
| Cc1nc(C(=O)N2CCN(C(=O)c3cn4nc(-c5ccc(F)c(C)c5)cc(C(C)C)c4n3)C(C)(C)C2)c[nH]1 [Compound I-380] | < 6.00 | < 6.00 | 8.08 | 8.13 |  |  |  |  |  |
| CC(C)c1cc(-c2ccc(F)cc2)nn2cc(C(=O)N3CCN(C(=O)C(O)c4ccc(F)cc4)[C@@H](C)C3)nc12 (stereo partly drawn) [Compound I-108] |  |  |  |  | 5.08 | 4.80 |  | 9.15 | 9.15 |
| C[C@H]1CN(C(=O)c2cn3nc(-c4ccc(F)cc4)cc(C(F)(F)F)c3n2)CCN1C(=O)OCc1ccccc1 [Compound I-46] |  |  |  |  | < 5.30 | < 5.30 |  | 7.02 | 7.40 |
| CC(C)(C)c1cc(-c2ccc(F)cc2)nn2cc(C(=O)N3CCN(C(=O)c4cncnc4)CC3(C)C)nc12 [Compound I-230] | 6.14 | < 6.00 | 8.62 | 8.26 |  |  |  |  |  |
| CC(C)c1cc(-c2ccc(F)cc2)nn2cc(C(=O)N3CCN(C(=O)c4ccccn4)CC3(C)C)nc12 [Compound I-320] | < 6.00 | < 6.00 | 8.15 | 7.85 |  |  |  |  |  |
| COC(=O)[C@H]1CC[C@@H](C(=O)N2CCN(C(=O)c3cn4nc(-c5ccc(Cl)cc5)cc(C(C)C)c4n3)C(C)(C)C2)CC1 [Compound I-539] | < 6.00 | < 6.00 | 9.10 | 8.89 |  |  |  |  |  |
| CC1(C)CN(C(=O)c2nc[nH]n2)CCN1C(=O)c1cn2nc(-c3ccc(F)cc3)cc(C(F)(F)F)c2n1 [Compound I-269] | < 6.00 | < 6.00 | 7.04 | 6.92 |  |  |  |  |  |
| CC(C)c1cc(-c2ccccc2F)nn2cc(C(=O)N3CCNC(=O)C3(C)C)nc12 [Compound I-479] | < 6.00 | < 6.00 | 6.81 | 6.60 |  |  |  |  |  |
| Cc1n[nH]c(C(=O)N2CCN(C(=O)c3cn4nc(-c5ccc(C)c(F)c5)cc(C(C)C)c4n3)C(C)(C)C2)n1 [Compound I-339] | < 6.00 | < 6.00 | 8.72 | 8.72 |  |  |  |  |  |
| Cc1nc(C(=O)N2CCN(C(=O)c3cn4nc(-c5ccc(C)c(F)c5)cc(C(C)C)c4n3)C(C)(C)C2)c[nH]1 [Compound I-376] | < 6.00 | < 6.00 | 8.70 | 8.49 |  |  |  |  |  |
| Cc1n[nH]c(C(=O)N2CCN(C(=O)c3cn4nc(-c5ccc(Br)cc5)cc(C(C)(C)C)c4n3)C(C)(C)C2)n1 [Compound I-519] | < 6.00 | < 6.00 | 9.40 | 9.40 |  |  |  |  |  |
| Cc1cn[nH]c1C(=O)N1CCN(C(=O)c2cn3nc(-c4ccc(F)cc4)cc(C(C)(C)C)c3n2)C(C)(C)C1 [Compound I-290] | 6.28 | 6.14 | 8.47 | 8.51 |  |  |  |  |  |
| C[C@H]1CN(C(=O)c2cn3nc(-c4ccc(F)cc4)cc(C(F)(F)F)c3n2)CCN1C(=O)c1ccccc1 [Compound I-89] |  |  |  |  | < 4.30 | < 4.30 |  | 6.05 | 6.57 |
| C[C@H]1CN(C(=O)c2cn3nc(-c4ccc(F)cc4)cc(C4CC4)c3n2)CCN1C(=O)[C@H](O)CC(C)(C)C [Compound I-14, (2R)-1-[(2S)-4-[8-Cylopropyl-6-(4-fluorophenyl)imidazo[1,2-b]pyridazine-2-carbonyl]-2-methyl-piperazin-1-yl]-2-hydroxy-4,4-dimethyl-pentan-1-one] |  |  |  |  | < 5.30 | < 5.30 |  | 9.10 | 9.30 |
| C[C@@H]1C[C@H](c2cc(-c3ccc(F)cc3)nn3cc(C(=O)N4CCN(C(=O)OC(C)(C)C)CC4(C)C)nc23)C[C@H](C)O1 [Compound I-209] | < 6.00 | < 6.00 | 7.78 | 7.78 |  |  |  |  |  |
| CC(C)(C)c1cc(-c2ccc(F)cc2)nn2cc(C(=O)N3CCN(C(=O)C(C)(O)C(F)(F)F)CC3(C)C)nc12 (stereo not drawn) [Compound I-317] | < 6.00 | < 6.00 | 8.47 | 8.54 |  |  |  |  |  |
| CC(C)(C)c1cc(-c2ccc(Cl)c(F)c2)nn2cc(C(=O)N3CCN(C(=O)c4ccccn4)CC3(C)C)nc12 [Compound I-455] | < 6.00 | < 6.00 | 9.22 | 9.05 |  |  |  |  |  |
| Cc1cc(C(=O)N2CCN(C(=O)c3cn4nc(-c5ccc(C(F)(F)F)cc5)cc(C(C)(C)C)c4n3)C(C)(C)C2)[nH]n1 [Compound I-402] | < 6.00 | < 6.00 | 9.10 | 9.00 |  |  |  |  |  |
| Cc1cc(-c2cc(C(C)C)c3nc(C(=O)N4CCN(C)C(=O)C4(C)C)cn3n2)ccc1F [Compound I-440] | < 6.00 | < 6.00 | 8.09 | 7.85 |  |  |  |  |  |
| Cc1cc(-c2cc(C(C)C)c3nc(C(=O)N4CCN(C(=O)c5ccncn5)CC4(C)C)cn3n2)ccc1F [Compound I-262] | < 6.00 | < 6.00 | 8.04 | 7.84 |  |  |  |  |  |
| Cc1nnc(C(=O)N2CCN(C(=O)c3cn4nc(-c5ccc(F)cc5)cc(C(C)C)c4n3)C(C)(C)C2)o1 [Compound I-324] | < 6.00 | < 6.00 | 7.68 | 7.65 |  |  |  |  |  |
| Cc1ccc(-c2cc(C(C)C)c3nc(C(=O)N4CCNC(=O)C4(C)C)cn3n2)cc1Cl [Compound I-508] | < 6.00 | < 6.00 | 8.33 | 8.39 |  |  |  |  |  |
| CC(C)(C)c1cc(-c2ccc(F)cc2)nn2cc(C(=O)N3CCN(CC(=O)O)C(=O)C3(C)C)nc12 [Compound I-518] | < 6.00 | < 6.00 | 7.24 | 7.16 |  |  |  |  |  |
| CC(C)c1cc(-c2ccc(F)c(Cl)c2)nn2cc(C(=O)N3CCN(C(=O)[C@H]4C[C@@H](O)C4)CC3(C)C)nc12 [Compound I-498] | < 6.00 | < 6.00 | 8.25 | 8.13 |  |  |  |  |  |
| Cc1ccc(-c2cc(C(C)C)c3nc(C(=O)N4CCN(C(=O)c5ccccn5)CC4(C)C)cn3n2)cc1F [Compound I-375] | < 6.00 | < 6.00 | 8.64 | 8.42 |  |  |  |  |  |
| CC(C)c1cc(-c2ccc(F)c(F)c2)nn2cc(C(=O)N3CCN(C(=O)[C@H]4C[C@@](O)(C(F)(F)F)C4)CC3(C)C)nc12 [Compound I-264] | < 6.00 | < 6.00 | 8.51 | 8.28 |  |  |  |  |  |
